# From ChEMBL document CHEMBL1201862, “PubChem BioAssay data set” (2004)
# Calls of active or inactive are those of the source.
# What was measured:
# [1] = viability loss of HPDE-C7K cells – cell-based, fluorescence, HTS, primary screen (AID 431); assay type: functional; settings: Homo sapiens
# [2] = HPDE-C7 pancreatic duct cell viability loss – fluorescence, HTS (AID 430); assay type: functional, cell-based; settings: Homo sapiens
# Hexokinase HKDC1 = biological target: T1, Hexokinase HKDC1 (Homo sapiens, UniProt Q2TB90); test: inhibition of HKDC1 glucose phosphorylation – biochemical, W721R variant, dose response (AID 504729); assay type: functional
# T1 sequence (Q2TB90 whole entry): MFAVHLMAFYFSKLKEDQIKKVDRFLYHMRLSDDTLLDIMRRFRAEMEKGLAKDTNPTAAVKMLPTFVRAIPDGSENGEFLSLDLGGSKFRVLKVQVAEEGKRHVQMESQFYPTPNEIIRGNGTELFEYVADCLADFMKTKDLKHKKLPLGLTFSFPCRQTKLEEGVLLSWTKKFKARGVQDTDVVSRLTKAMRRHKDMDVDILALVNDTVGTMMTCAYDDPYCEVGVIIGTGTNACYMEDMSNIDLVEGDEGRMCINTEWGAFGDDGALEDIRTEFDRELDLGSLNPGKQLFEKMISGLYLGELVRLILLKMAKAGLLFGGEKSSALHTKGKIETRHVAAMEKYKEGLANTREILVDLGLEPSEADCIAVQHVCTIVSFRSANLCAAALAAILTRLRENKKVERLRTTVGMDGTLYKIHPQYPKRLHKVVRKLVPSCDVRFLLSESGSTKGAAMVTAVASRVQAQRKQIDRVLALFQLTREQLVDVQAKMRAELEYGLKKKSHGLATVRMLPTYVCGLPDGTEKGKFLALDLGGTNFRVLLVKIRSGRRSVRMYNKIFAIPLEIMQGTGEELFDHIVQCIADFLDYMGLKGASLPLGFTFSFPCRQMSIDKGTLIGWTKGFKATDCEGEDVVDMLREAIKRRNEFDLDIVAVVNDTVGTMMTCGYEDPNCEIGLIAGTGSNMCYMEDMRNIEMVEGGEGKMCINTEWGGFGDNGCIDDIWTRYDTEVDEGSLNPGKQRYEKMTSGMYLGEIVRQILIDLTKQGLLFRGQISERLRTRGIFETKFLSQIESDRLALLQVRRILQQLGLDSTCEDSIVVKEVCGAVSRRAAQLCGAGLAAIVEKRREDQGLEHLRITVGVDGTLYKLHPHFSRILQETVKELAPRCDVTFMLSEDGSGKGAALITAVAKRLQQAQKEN
# Genome polyprotein = Genome polyprotein (dengue virus type 2, UniProt P29990); test: flavivirus cap methylation enzyme inhibition – biochemical, confirmation dose response, primary screen (AID 588689); assay type: functional
# Vero [3] = test: viability of Vero cells under compound – cytotoxicity control for flavivirus capping enzyme inhibitors (AID 588742); assay type: functional; settings: Chlorocebus sabaeus
# [4] = biological target: T2, Polyadenylate-binding protein 1 (Homo sapiens, UniProt P11940); test: MLLE binding blockers, Cy5 peptide tracer – biochemical, fluorescence polarization, Cy5-PAM2 peptide, secondary, miRNA deadenylation inhibitor project, dose response (AID 602260); assay type: functional; settings: read-out: IC50_Mean
# [5] = biological target: T2, Polyadenylate-binding protein 1; test: MLLE domain peptide-binding blockers, IC50 – biochemical, fluorescence polarization, FITC-PAM2 peptide, dose response (AID 602259); assay type: functional; settings: read-out: IC50_Mean
# [6] = biological target: Induced myeloid leukemia cell differentiation protein Mcl-1 (Homo sapiens, UniProt Q07820); assay type: functional
# Beta-galactosidase = Beta-galactosidase (Escherichia coli, UniProt Q8VNN2); test: detection-enzyme interference by beta-gal modulators – biochemical, E. coli enzyme, set 3, artefact control for CCR6 antagonist project, dose response (AID 504712); assay type: functional
# Nonstructural protein 1 = Nonstructural protein 1 (Influenza A virus, UniProt Q194T2); assay type: functional, Influenza A virus (A/California/07/2009(H1N1))
# Estrogen receptor beta = Estrogen receptor beta (Homo sapiens, UniProt Q92731);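 note: recombinant ER-beta bound to coactivator SRC1 peptide in presence of estradiol agonist; inhibitors block coactivator peptide binding and lower the FRET signal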
# [7] = biological target: Mitogen-activated protein kinase 10 (Homo sapiens, UniProt P53779); test: Dose response biochemical screening assay for inhibitors of c-Jun N-Terminal Kinase 3 (JNK3). [Related pubchem assays: 746 ]
# cells = assay type: functional
# Vero [8] = test: cells; assay type: functional; settings: Chlorocebus sabaeus
# [9] = Luminescent dose response cell-based high throughput screening assay for inhibitors of the Janus kinase 2 mutant JAK2V617F. [Related pubchem assays: 1446 (Primary screen.), 1521 (Confirmation assay.), 1486 (Counter screen.)]; assay type: functional
# [10] = fluconazole-exposed Candida albicans growth modulators – fluorescence, retest, confirmation (AID 2467); assay type: functional, cell-based
# [11] = NIH-3T3 fibroblast cytotoxicity, dose response, cytotoxicity control, cell-based, fluorescence, Alamar Blue, secondary assay (AID 2327); assay type: functional;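 note: NIH-3T3 mouse fibroblasts cultured with fluconazole at 8 µg/mL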
# [12] = biological target: T3, Heat shock factor protein 1 (Mus musculus, UniProt P38532); test: enhancement of HSF1-driven luciferase signal – cell-based, NIH3T3, luminescence, dose retest, confirmation (AID 435004); assay type: functional;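 note: stress induced by proteasome inhibitor MG132 added 30 min after compound; luciferase reporter driven by HSF1 response element in NIH3T3 cells; actives raise luminescence as potentiators of the MG132 stress response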
# T3 sequence (P38532 whole entry): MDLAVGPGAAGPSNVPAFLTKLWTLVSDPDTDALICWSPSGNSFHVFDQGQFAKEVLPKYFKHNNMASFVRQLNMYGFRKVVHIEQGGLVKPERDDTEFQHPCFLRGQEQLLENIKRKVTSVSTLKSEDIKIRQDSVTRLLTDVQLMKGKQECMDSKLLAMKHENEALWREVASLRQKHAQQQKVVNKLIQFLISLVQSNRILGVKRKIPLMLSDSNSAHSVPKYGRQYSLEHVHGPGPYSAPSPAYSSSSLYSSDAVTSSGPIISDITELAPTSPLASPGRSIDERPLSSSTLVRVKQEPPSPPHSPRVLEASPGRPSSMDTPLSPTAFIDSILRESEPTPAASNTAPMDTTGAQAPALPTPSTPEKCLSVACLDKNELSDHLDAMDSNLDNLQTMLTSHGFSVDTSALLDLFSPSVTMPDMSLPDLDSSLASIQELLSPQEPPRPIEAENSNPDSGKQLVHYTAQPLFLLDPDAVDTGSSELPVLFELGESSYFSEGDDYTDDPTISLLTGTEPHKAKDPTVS
# [13] = biological target: T4, Replicative DNA helicase DnaB (Mycobacterium tuberculosis, UniProt P9WMR3); test: DnaB intein splicing inhibitors, dose response, biochemical, cell-free fluorescence (AID 449749); assay type: functional
# T4 sequence (P9WMR3 whole entry): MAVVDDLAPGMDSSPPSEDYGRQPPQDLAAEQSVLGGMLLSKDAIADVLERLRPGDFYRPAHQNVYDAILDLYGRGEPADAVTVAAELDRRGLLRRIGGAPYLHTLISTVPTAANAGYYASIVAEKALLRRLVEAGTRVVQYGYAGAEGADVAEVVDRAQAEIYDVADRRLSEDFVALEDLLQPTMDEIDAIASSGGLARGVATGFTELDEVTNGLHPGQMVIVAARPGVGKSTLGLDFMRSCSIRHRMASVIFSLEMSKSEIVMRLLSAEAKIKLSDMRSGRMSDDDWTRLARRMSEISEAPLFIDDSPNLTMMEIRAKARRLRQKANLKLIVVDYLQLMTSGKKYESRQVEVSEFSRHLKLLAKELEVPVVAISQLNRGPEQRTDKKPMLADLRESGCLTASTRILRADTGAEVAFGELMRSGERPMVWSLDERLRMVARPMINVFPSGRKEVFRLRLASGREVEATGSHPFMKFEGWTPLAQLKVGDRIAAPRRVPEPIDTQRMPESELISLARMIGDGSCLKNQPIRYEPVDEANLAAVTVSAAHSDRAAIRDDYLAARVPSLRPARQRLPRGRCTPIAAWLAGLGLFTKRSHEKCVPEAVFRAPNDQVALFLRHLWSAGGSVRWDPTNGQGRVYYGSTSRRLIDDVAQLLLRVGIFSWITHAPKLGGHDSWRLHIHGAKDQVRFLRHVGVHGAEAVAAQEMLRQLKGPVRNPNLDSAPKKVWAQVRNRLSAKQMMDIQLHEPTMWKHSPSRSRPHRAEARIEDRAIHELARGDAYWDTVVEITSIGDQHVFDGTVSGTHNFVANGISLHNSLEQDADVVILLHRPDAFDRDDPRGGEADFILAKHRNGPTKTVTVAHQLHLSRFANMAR
# Protein RecA = biological target: T5, Protein RecA (Mycobacterium tuberculosis, UniProt P9WHJ3); test: Fluorescence Cell-Free Homogeneous Dose Retest to Identify Inhibitors of RecA-Intein Splicing Activity. [Related pubchem assays (depositor defined):AID2097, AID2223, AID489010, AID492950]; assay type: functional
# T5 sequence (P9WHJ3 whole entry): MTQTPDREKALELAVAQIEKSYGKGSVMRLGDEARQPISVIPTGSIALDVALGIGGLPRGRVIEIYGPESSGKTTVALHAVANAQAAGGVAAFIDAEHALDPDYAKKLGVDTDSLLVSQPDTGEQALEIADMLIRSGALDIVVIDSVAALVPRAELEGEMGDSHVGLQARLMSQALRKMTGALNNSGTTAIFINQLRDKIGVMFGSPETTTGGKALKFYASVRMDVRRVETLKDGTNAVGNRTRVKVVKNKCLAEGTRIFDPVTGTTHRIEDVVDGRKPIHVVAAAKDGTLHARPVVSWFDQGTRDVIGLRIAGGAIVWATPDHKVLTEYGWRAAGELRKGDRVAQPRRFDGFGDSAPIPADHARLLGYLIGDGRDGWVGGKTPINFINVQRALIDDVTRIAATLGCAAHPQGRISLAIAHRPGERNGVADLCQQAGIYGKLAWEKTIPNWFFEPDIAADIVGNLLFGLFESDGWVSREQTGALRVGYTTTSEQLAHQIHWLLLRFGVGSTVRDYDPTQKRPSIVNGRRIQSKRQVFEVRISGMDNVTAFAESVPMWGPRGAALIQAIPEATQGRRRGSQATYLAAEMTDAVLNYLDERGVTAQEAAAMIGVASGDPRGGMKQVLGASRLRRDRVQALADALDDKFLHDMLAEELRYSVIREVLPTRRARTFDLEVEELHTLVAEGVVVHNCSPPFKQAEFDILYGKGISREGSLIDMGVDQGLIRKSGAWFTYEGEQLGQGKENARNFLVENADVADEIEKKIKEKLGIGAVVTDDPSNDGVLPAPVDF
# Prothrombin = Prothrombin (Homo sapiens, UniProt P00734); test: Thrombin 1536 HTS Dose Response Confirmation. [Related pubchem assays: 1046 (Thrombin 1536 HTS; hits were confirmed in this assay)]; assay type: functional
# Estrogen receptor = biological target: T6, Estrogen receptor (Homo sapiens, UniProt P03372);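 note: potency for inhibiting coactivator peptide recruitment to the receptor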
# T6 sequence (P03372 whole entry): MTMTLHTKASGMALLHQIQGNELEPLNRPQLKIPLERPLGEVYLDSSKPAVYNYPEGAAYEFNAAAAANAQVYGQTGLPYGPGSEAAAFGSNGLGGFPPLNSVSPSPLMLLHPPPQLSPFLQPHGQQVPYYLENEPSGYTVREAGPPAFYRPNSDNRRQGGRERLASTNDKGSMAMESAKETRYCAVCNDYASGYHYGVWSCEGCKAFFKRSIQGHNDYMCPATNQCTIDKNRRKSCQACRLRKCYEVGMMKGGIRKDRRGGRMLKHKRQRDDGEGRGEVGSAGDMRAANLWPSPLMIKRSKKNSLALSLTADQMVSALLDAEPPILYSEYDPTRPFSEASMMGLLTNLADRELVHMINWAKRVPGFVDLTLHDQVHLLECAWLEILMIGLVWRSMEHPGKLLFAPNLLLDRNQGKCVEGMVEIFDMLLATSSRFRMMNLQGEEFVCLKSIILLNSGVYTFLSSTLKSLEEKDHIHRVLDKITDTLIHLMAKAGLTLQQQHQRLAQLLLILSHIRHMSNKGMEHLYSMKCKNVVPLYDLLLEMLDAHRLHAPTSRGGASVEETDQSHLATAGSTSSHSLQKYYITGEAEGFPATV
# [14] = M. tuberculosis H37Rv growth inhibitors, H37Rv strain (AID 1626); assay type: functional
# T2 sequence (P11940 whole entry, the tested form may be a part): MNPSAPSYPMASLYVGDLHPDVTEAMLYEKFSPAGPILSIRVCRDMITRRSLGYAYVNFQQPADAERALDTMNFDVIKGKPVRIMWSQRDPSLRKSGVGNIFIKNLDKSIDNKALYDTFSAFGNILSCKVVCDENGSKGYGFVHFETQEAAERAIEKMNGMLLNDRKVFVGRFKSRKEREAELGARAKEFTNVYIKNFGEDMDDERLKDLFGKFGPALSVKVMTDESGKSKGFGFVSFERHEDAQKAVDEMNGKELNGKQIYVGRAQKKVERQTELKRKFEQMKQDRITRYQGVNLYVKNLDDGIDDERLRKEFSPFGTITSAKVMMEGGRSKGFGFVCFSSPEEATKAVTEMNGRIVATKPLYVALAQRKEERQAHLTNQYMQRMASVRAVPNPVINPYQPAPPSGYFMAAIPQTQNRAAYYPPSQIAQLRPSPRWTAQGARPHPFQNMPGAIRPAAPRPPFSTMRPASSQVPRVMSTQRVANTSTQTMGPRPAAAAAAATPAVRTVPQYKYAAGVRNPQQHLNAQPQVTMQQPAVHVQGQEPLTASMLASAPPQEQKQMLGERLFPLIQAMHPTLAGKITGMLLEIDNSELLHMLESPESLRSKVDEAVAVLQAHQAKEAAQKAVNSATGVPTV
# Sequence of Estrogen receptor beta (Q92731 whole entry): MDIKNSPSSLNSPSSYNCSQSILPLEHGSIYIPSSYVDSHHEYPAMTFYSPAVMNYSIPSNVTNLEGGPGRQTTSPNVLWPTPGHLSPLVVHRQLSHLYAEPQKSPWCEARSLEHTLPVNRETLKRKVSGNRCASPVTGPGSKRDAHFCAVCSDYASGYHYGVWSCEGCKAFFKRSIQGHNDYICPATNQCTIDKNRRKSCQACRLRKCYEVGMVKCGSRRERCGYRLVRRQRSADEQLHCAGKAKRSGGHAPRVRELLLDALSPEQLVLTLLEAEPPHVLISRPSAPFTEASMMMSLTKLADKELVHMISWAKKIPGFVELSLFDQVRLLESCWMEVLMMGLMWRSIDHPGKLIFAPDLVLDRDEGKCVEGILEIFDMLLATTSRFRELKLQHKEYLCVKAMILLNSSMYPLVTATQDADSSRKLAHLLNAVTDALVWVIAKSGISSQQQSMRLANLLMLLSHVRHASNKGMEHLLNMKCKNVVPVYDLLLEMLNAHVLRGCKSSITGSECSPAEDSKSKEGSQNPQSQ
# Sequence of Nonstructural protein 1 (Q194T2 whole entry): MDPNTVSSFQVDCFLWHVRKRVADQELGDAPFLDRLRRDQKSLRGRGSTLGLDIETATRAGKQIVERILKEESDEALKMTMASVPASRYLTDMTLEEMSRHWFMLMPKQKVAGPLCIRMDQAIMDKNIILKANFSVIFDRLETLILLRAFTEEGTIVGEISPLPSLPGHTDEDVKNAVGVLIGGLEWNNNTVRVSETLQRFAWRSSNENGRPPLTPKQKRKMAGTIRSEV
# Sequence of Mitogen-activated protein kinase 10 (P53779 whole entry): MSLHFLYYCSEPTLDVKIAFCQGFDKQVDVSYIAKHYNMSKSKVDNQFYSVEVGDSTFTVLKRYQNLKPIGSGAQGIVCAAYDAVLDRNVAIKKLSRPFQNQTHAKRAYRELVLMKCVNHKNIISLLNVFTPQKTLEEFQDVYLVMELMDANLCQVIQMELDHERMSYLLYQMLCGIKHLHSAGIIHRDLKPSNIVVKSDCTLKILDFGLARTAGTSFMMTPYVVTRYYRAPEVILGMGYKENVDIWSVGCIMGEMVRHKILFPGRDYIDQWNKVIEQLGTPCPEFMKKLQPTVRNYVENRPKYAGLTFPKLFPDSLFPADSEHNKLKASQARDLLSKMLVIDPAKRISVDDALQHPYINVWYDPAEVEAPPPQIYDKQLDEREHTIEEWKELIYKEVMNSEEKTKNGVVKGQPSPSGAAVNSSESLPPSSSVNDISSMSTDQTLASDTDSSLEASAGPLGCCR
# Sequence of Genome polyprotein (P29990 2492-3391 limits assumed): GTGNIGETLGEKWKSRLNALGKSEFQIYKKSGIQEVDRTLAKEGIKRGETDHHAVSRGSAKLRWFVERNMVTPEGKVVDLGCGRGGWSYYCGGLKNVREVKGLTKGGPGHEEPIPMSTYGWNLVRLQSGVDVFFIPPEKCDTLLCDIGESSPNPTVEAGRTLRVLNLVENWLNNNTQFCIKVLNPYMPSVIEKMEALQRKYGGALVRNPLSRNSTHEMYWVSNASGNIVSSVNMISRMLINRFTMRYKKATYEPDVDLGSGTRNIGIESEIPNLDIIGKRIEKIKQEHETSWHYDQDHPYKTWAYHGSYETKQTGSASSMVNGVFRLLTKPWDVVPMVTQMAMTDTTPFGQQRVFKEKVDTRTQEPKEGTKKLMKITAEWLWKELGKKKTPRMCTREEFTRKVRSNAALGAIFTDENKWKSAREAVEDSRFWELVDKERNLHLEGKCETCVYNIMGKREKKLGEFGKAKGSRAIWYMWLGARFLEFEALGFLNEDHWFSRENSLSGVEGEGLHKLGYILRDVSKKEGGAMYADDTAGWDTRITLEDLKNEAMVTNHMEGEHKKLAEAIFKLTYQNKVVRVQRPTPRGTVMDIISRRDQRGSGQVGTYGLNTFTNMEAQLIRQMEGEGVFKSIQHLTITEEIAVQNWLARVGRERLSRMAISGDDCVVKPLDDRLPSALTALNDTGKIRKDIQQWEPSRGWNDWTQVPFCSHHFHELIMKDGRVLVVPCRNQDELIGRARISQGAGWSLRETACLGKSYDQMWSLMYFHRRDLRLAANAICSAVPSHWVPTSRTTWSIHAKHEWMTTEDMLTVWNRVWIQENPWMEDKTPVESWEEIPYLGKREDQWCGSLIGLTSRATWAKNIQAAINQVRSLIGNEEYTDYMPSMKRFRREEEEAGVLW
# Sequence of Beta-galactosidase (Q8VNN2 whole entry): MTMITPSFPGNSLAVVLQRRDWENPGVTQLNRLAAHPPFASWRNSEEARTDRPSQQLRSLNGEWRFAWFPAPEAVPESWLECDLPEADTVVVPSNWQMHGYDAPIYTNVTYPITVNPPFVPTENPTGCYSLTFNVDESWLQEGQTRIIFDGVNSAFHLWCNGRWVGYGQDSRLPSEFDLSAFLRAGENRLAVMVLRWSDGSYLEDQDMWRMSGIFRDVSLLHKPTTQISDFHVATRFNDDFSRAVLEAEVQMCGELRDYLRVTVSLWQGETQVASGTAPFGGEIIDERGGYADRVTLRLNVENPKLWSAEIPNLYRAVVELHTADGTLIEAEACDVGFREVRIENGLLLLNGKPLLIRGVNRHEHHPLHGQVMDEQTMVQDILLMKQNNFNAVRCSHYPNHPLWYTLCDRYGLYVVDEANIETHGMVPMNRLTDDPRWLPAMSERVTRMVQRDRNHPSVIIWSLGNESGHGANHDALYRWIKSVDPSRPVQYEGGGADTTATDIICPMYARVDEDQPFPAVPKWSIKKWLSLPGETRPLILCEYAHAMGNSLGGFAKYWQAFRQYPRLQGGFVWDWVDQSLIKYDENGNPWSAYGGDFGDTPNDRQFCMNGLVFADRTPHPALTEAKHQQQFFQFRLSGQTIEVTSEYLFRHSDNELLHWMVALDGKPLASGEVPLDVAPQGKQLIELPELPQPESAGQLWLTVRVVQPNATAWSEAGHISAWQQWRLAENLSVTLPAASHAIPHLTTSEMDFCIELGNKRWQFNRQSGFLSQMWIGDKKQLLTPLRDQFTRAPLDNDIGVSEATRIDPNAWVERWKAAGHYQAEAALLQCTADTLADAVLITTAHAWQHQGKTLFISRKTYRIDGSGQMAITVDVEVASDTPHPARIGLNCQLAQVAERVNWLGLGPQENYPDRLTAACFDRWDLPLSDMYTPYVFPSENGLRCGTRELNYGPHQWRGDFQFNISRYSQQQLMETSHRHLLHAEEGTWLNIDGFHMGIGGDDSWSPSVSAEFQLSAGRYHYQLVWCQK
# Sequence of Induced myeloid leukemia cell differentiation protein Mcl-1 (Q07820 whole entry): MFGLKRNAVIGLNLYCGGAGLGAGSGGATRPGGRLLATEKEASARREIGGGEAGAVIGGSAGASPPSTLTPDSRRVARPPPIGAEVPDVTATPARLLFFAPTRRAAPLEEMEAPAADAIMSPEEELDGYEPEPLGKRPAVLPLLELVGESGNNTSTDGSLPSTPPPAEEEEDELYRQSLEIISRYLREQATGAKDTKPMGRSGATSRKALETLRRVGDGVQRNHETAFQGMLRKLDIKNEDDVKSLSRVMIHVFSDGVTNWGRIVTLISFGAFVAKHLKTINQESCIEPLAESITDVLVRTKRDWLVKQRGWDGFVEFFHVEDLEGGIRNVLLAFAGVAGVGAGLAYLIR
smiles,measurement,setting,value
CC12CNCC(C)(CNC1)C2O (stereo not given),EC50,[1],> 20 µM (not active)
same,EC50,[2],> 20 µM (not active)
CCOC(=O)/C=C(\C)Sc1cc(O)c2ccccc2c1O,IC50,Hexokinase HKDC1,11.8 µM (active)
same,IC50,Genome polyprotein,5.24 µM (active)
same,CC50,Vero [3],22 µM (active)
same,IC50,[4],> 66 µM (inactive)
same,IC50,[5],> 66 µM (inactive)
same,IC50,[6],10.5 µM (active)
same,IC50,Beta-galactosidase,> 66.6 µM (inactive)
CCOC(=O)c1c(N)sc(=S)c2c1CCC2,IC50,[4],> 66 µM (inactive)
same,IC50,Nonstructural protein 1,> 100 µM (active)
same,IC50,Estrogen receptor beta,> 50 µM (not active)
same,IC50,[5],> 66 µM (inactive)
Cc1ccccc1NC(=O)c1[nH]cnc1C(=O)NCc1ccccc1,IC50,[7],> 31 µM (not active)
same,IC50,cells,10.3 µM (active)
O=C(Cc1cccs1)Nc1nncs1,IC50,Estrogen receptor beta,17 µM (active)
COc1ccccc1C(C[N+](=O)[O-])c1c(N)n(C)c(=O)n(C)c1=O (stereo not given),CC50,Vero [8],9.01 µM (active)
same,IC50,[9],1.61 µM (active)
same,EC50,[10],6.01 µM (active)
same,EC50,[11],9.19 µM (active)
CSc1ccccc1NC(=O)c1ccccc1N(Cc1ccccc1)S(C)(=O)=O,IC50,Estrogen receptor beta,> 50 µM (not active)
Cc1ccc(S(=O)(=O)c2cc3c(=O)n4ccccc4nc3n(Cc3ccco3)c2=N)cc1C,EC50,[1],17.9 µM (active)
same,EC50,[2],18.8 µM (active)
COC1(OC)C(/C=C/c2ccc(Cl)cc2)C(C#N)(C#N)C1(OC)OC (stereo not given),EC50,[12],33.6 µM (active)
same,AC50,[13],33.8 µM (active)
same,IC50,[9],1.76 µM (active)
same,EC50,Protein RecA,2.45 µM (active)
O=C(Oc1oc(-c2ccco2)nc1/C=N/c1ccccc1)c1ccco1,IC50,Prothrombin,1.32 µM (active)
same,EC50,[1],> 20 µM (not active)
same,EC50,[2],> 20 µM (not active)
Oc1ccc(O)c(Cc2nc3ccccc3[nH]2)c1,IC50,Hexokinase HKDC1,3.45 µM (active)
Cc1ccc(S(=O)(=O)N2CCN(C(=O)CSc3ncc(C(F)(F)F)cc3Cl)CC2)cc1,IC50,Estrogen receptor,> 50 µM (not active)
Cc1ccc(C(=O)/C=C\Nc2ccc(C)c(C)c2)cc1,IC50,[14],> 100 µM (active)
Cc1ccccc1N1C(=O)NC(=O)/C(=C/Nc2ccc3c(c2)OCO3)C1=O,IC50,[14],> 100 µM (active)
CCc1sc(N)nc1-c1ccccc1,IC50,[14],> 100 µM (active)
